Activity data for 2 compounds are collected here from ChEMBL document CHEMBL1144668, “Mono- and dialkyl isoprenoid bisphosphonates as geranylgeranyl diphosphate synthase inhibitors” (Bioorg Med Chem, 2008).

The experiment deals with K562. Nature of the experiment: Inhibition of Ras farnesylation in human K562 cells after 24 hrs by Western blot. It is filed as functional, cell-based.

Calls of active or inactive are those of the source. No cut-off for these calls is given here.

Regarding `CC(C)=CCC/C(C)=C\CC(C/C=C(\C)CCC=C(C)C)(P(=O)(O)O)P(=O)(O)O`, the outcome was inactive.

Consider `CC(C)=CCCC(C)=CCC(CC=C(C)CCC=C(C)C)(P(=O)(O)O)P(=O)(O)O`, for which the outcome was inactive.
